Test results reported in BindingDB's records for doi:10.1021/jm800889m (University of Wisconsin At Madison, 2008).
pKi: −log10 of the molar value.

How the values were obtained:
Experiment in all cases: Radioligand Binding Assay
[1] = target: T1, Gamma-aminobutyric acid receptor subunit alpha-4 [36-554]/beta-2 [26-512]/gamma-2 [40-467] (Homo sapiens, UniProt P18507+P47870+P48169); conditions: pH 7.4; 22 °C
T1 construct: 36-554; 26-512; 40-467

[2] = target: T2, Gamma-aminobutyric acid receptor subunit alpha-5 [32-462]/beta-2 [26-512]/gamma-2 [40-467] (Homo sapiens, UniProt P18507+P31644+P47870); conditions: pH 7.4; 22 °C
T2 construct: 32-462; 26-512; 40-467

[3] = target: T3, Gamma-aminobutyric acid receptor subunit alpha-1 [28-456]/beta-2 [26-512]/gamma-2 [40-200],P14867[176-456] (Homo sapiens, UniProt P14867+P18507+P47870); conditions: 25 °C
T3 construct: 28-456; 26-512; 40-200; 176-456

[4] = target: T4, Gamma-aminobutyric acid receptor subunit alpha-1 [28-456]/beta-2 [26-512]/gamma-2 [40-467,A118C] (Homo sapiens, UniProt P14867+P18507+P47870, A118C); conditions: 25 °C
T4 construct: 28-456; 26-512; 40-467

[5] = target: T5, Gamma-aminobutyric acid receptor subunit alpha-1 [28-456]/beta-2 [26-512]/gamma-2 [40-467,D95C] (Homo sapiens, UniProt P14867+P18507+P47870, D95C); conditions: 25 °C
T5 construct: 28-456; 26-512; 40-467

[6] = target: T6, Gamma-aminobutyric acid receptor subunit alpha-1 [28-456]/beta-2 [26-512]/gamma-2 [40-467,L179C] (Homo sapiens, UniProt P14867+P18507+P47870, L179C); conditions: 25 °C
T6 construct: 28-456; 26-512; 40-467

[7] = target: T7, Gamma-aminobutyric acid receptor subunit alpha-1 [28-456]/beta-2 [26-512]/gamma-2 [40-467,M169C] (Homo sapiens, UniProt P14867+P18507+P47870, M169C); conditions: 25 °C
T7 construct: 28-456; 26-512; 40-467

[8] = target: T8, Gamma-aminobutyric acid receptor subunit alpha-1 [28-456]/beta-2 [26-512]/gamma-2 [40-467,R171C] (Homo sapiens, UniProt P14867+P18507+P47870, R171C); conditions: 25 °C
T8 construct: 28-456; 26-512; 40-467

[9] = target: T9, Gamma-aminobutyric acid receptor subunit alpha-1 [28-456]/beta-2 [26-512]/gamma-2 [40-467,R183C] (Homo sapiens, UniProt P14867+P18507+P47870, R183C); conditions: 25 °C
T9 construct: 28-456; 26-512; 40-467

[10] = target: T10, Gamma-aminobutyric acid receptor subunit alpha-1 [28-456]/beta-2 [26-512]/gamma-2 [40-467,R224C] (Homo sapiens, UniProt P14867+P18507+P47870, R224C); conditions: 25 °C
T10 construct: 28-456; 26-512; 40-467

[11] = target: T11, Gamma-aminobutyric acid receptor subunit alpha-1 [28-456]/beta-2 [26-512]/gamma-2 [40-467,R233C] (Homo sapiens, UniProt P14867+P18507+P47870, R233C); conditions: 25 °C
T11 construct: 28-456; 26-512; 40-467

[12] = target: T12, Gamma-aminobutyric acid receptor subunit alpha-1 [28-456]/beta-2 [26-512]/gamma-2 [40-467,T120C] (Homo sapiens, UniProt P14867+P18507+P47870, T120C); conditions: 25 °C
T12 construct: 28-456; 26-512; 40-467

[13] = target: T13, Gamma-aminobutyric acid receptor subunit alpha-1 [28-456]/beta-2 [26-512]/gamma-2 [40-467,T165C] (Homo sapiens, UniProt P14867+P18507+P47870, T165C); conditions: 25 °C
T13 construct: 28-456; 26-512; 40-467

[14] = target: T14, Gamma-aminobutyric acid receptor subunit alpha-1 [28-456]/beta-2 [26-512]/gamma-2 [40-467,T181C] (Homo sapiens, UniProt P14867+P18507+P47870, T181C); conditions: 25 °C
T14 construct: 28-456; 26-512; 40-467

[15] = target: T15, Gamma-aminobutyric acid receptor subunit alpha-1 [28-456]/beta-2 [26-512]/gamma-2 [40-467] (Homo sapiens, UniProt P14867+P18507+P47870); conditions: pH 7.4; 22 °C
T15 construct: 28-456; 26-512; 40-467

[16] = target: T16, Gamma-aminobutyric acid receptor subunit alpha-1 [A160C]/beta-2 [26-512]/gamma-2 [40-467] (Homo sapiens, UniProt P14867+P18507+P47870, A160C); conditions: 25 °C
T16 construct: 26-512; 40-467

[17] = target: T17, Gamma-aminobutyric acid receptor subunit alpha-1 [F99C]/beta-2 [26-512]/gamma-2 [40-467] (Homo sapiens, UniProt P14867+P18507+P47870, F99C); conditions: pH 7.4; 22 °C
T17 construct: 26-512; 40-467

[18] = target: T18, Gamma-aminobutyric acid receptor subunit alpha-1 [G157C]/beta-2 [26-512]/gamma-2 [40-467] (Homo sapiens, UniProt P14867+P18507+P47870, G157C); conditions: 25 °C
T18 construct: 26-512; 40-467

[19] = target: T19, Gamma-aminobutyric acid receptor subunit alpha-1 [G200C]/beta-2 [26-512]/gamma-2 [40-467] (Homo sapiens, UniProt P14867+P18507+P47870, G200C); conditions: 25 °C
T19 construct: 26-512; 40-467

[20] = target: T20, Gamma-aminobutyric acid receptor subunit alpha-1 [S204C]/beta-2 [26-512]/gamma-2 [40-467] (Homo sapiens, UniProt P14867+P18507+P47870, S204C); conditions: 25 °C
T20 construct: 26-512; 40-467

[21] = target: T21, Gamma-aminobutyric acid receptor subunit alpha-1 [S205C]/beta-2 [26-512]/gamma-2 [40-467] (Homo sapiens, UniProt P14867+P18507+P47870, S205C); conditions: 25 °C
T21 construct: 26-512; 40-467

[22] = target: T22, Gamma-aminobutyric acid receptor subunit alpha-1 [T162C]/beta-2 [26-512]/gamma-2 [40-467] (Homo sapiens, UniProt P14867+P18507+P47870, T162C); conditions: 25 °C
T22 construct: 26-512; 40-467

[23] = target: T23, Gamma-aminobutyric acid receptor subunit alpha-1 [T206C]/beta-2 [26-512]/gamma-2 [40-467] (Homo sapiens, UniProt P14867+P18507+P47870, T206C); conditions: 25 °C
T23 construct: 26-512; 40-467

[24] = target: T24, Gamma-aminobutyric acid receptor subunit alpha-1 [V202C]/beta-2 [26-512]/gamma-2 [40-467] (Homo sapiens, UniProt P14867+P18507+P47870, V202C); conditions: 25 °C
T24 construct: 26-512; 40-467

[25] = target: T25, Gamma-aminobutyric acid receptor subunit alpha-1 [V211C]/beta-2 [26-512]/gamma-2 [40-467] (Homo sapiens, UniProt P14867+P18507+P47870, V211C); conditions: 25 °C
T25 construct: 26-512; 40-467

[26] = target: T26, Gamma-aminobutyric acid receptor subunit alpha-2 [29-451]/beta-2 [26-512]/gamma-2 [40-467] (Homo sapiens, UniProt P18507+P47869+P47870); conditions: pH 7.4; 22 °C
T26 construct: 29-451; 26-512; 40-467

[27] = target: T27, Gamma-aminobutyric acid receptor subunit alpha-3 [29-492]/beta-2 [26-512]/gamma-2 [40-467] (Homo sapiens, UniProt P18507+P34903+P47870); conditions: pH 7.4; 22 °C
T27 construct: 29-492; 26-512; 40-467

[28] = target: T28, Gamma-aminobutyric acid receptor subunit alpha-6 [20-453]/beta-2 [26-512]/gamma-2 [40-467] (Homo sapiens, UniProt P18507+P47870+Q16445); conditions: pH 7.4; 22 °C
T28 construct: 20-453; 26-512; 40-467

For Cc1ccc(-c2nc3ccc(C)cn3c2CC(=O)N(C)C)cc1 [Ambien], the pKi [1] was under 4.82 and the pKi [2] was under 4.82.
For CN1CCN(C(=O)Oc2c3[nH]ccnc-3c(=O)n2-c2ccc(Cl)cn2)CC1 [ESZ], the pKi [3] was 7.65, the pKi [4] was 6.41 and the pKi [5] was 7.08. It also gave a pKi [6] of 7.33, a pKi [7] of 6.99 and a pKi [8] of 6.96. For the same compound, the pKi [9] was 6.76, the pKi [10] was 7.15 and the pKi [11] was 7.17. It also gave a pKi [12] of 7.12, a pKi [13] of 7.14 and a pKi [14] of 6.30. It also gave a pKi [15] of 7.30, a pKi [16] of 7.22 and a pKi [17] of 6.39. It also gave a pKi [18] of 5.68, a pKi [19] of 6.92 and a pKi [20] of 7.24. For the same compound, the pKi [21] was 7.46, the pKi [22] was 7.47 and the pKi [23] was 9.08. The pKi [24] was 6.60, the pKi [25] was 7.20 and the pKi [26] was 6.94. It also gave a pKi [27] of 6.79, a pKi [1] of under 4.82 and a pKi [2] of 6.99. For the same compound, the pKi [28] was under 4.82.
